Measurements published in patent US11576911B2, “Composition and method for treatment of depression and psychosis in humans” (Glytech LLC, priority 2012, dated 2023).
Like-named read-outs stand apart in the source and are kept apart here.

Experiments:
[1] = cited from earlier work; for Serum concentration: mean dose 8.8 mg/kg, patients (Hung et al.)
[2] = tested on: Male BalbC/J mice; test: Rodent forced swim test (FST), immobility time; assay type: in vivo
Excerpt: Male BalbC/J mice (8 weeks old) from Jackson Laboratories (Bar Harbor, Me.) were used. Upon receipt, mice were assigned unique identification numbers (tail marked) and were group housed in OPTImice cages. All animals were acclimated to the colony room for 1 week prior to testing. During the period of acclimation, animals were examined on a regular basis, handled, and weighed to assure adequate health and suitability. Animals were maintained on a 12/12 light/dark cycle. The room temperature was maintained between 20 and 23° C. with a relative humidity maintained between 30% and 70%. Chow and water were provided ad libitum for the duration of the study. All testing was performed during the animal's light cycle phase.
Mice were acclimated to the test room at least 1 hour prior to commencing the test. The forced swimming test consisted of one 6-minute session of forced swimming in individual opaque cylinders (15 cm tall×10 cm wide, 1000 ml beakers) containing fresh tap water at a temperature of 23±2° C. and a depth of 12 cm (approximately 800 ml) for each test animal. The time the animal spent immobile was recorded over the 6 min trial. Every 1 min the cumulative immobility time was recorded from the start of the session and noted on the study data record sheet. Immobility was defined as the postural position of floating in the water. The animals were generally observed with the back slightly hunched and the head above water with no movements or with small stabilizing movements of the limbs. After the swim test, each animal was placed in a pre-heated cage with a heating pad and allowed to dry.
The main variable used to represent immobility in this test was the total time immobile during the 6-min test period. Statistics were performed by analysis of variance (ANOVA) with Dunnett post-hoc testing vs. the control condition or by t-test as appropriate.
Sertraline, a known antidepressant, is used as a positive control.
For this study, further NMDAR antagonist compounds were tested for their ability to reduce immobility time in the rodent FST test, indicative of potential anti-depressant effects, and further 5-HT2AR antagonists were tested for their ability to produce reductions of time spent in the open arms of the EPM, indicative to potential liability to induce anxiety, akathisia and suicidality in humans

[3] = Pharmacokinetics of D-cycloserine in humans (literature)
[4] = tested on: Male C57Bl/6J mice; conditions: previously demonstrated, cited from earlier work
[5] = tested on: Male C57Bl/6J mice; test: Elevated plus maze (EPM), DOI 2 mg/kg in all conditions; assay type: in vivo; conditions: for Distance Traveled Open (DTO) Mean / Percent open (PCT) Mean: Table 1
[6] = Pharmacokinetics of D-cycloserine in rodents (plasma, IP); assay type: in vivo, mice
Procedure: For this study, male C57BL/6J mice (8 weeks old) from Jackson Laboratories (Bar Harbor, Me.) were used.
For each treatment group a total of 12 mice were dosed: 4 mice were collected at 30, 60 and 120 min. Mean plasma level was computed over this time period.

[7] = acidic gastric conditions, gastric emptying up to 3 hours; cited from earlier work

In the case of `N[C@@H]1CON=C1O` [D-cycloserine, 3-Isoxazolidinone, 4-amino-, (4R)-(9CI)], the Serum concentration ([1]; 2 hr after dosing) is listed as 19.7 microgram/mL, the Serum concentration ([1]; 6 hr after dosing) is listed as 18.1 microgram/mL and the “AUC over 24 hr, median” value ([1]; single 500 mg dose, fasting, humans (Zhu et al.)) is listed as 214 microgram-hr/mL. The “Effect on immobility in the forced swim test, in words” value (from here on “Effect on immobility”) ([2]; DCS 30 mg/kg in combination with lurasidone) was “did not significantly reduce immobility”, the “Effect in the forced swim test assay, in words” value ([2]; DCS 30 mg/kg, IP or PO (FIGS. 1 and 2)) was “no significant effect” and the “Effect in the forced swim test assay, in words” value ([2]; DCS 100 mg/kg or above, PO or IP (FIGS. 1 and 2)) was “highly significant”. For the same molecule, the “Effect on immobility” value ([2]; DCS 300 mg/kg in combination with aripiprazole) was “did not significantly reduce immobility”, the “Effect on immobility” value ([2]; DCS 300 mg/kg in combination with brexpiprazole) was “significantly reduced immobility” and the “Effect on immobility” value ([2]; DCS 300 mg/kg in combination with lurasidone 0.2 to 3 mg/kg) was “significantly reduced immobility”. The Sustained blood levels ([3]; 500 mg/day, human PK studies) was “below 25 microgram/mL”, the “Sustained plasma level, median” value ([3]; corresponding to AUC over 24 hr, 500 mg (Zhu et al.)) was 8.9 microgram/mL and the “Human dose required to produce a serum level in excess of 25 microgram/mL” value ([3]; from dose-serum concentration relationship of Hung et al.) was “exceeding 10 mg/kg”. The “Distance travelled in the open arm and % time in the open arms, in words” value ([4]; DCS 300 mg/kg in combination with EMD281,014) was “numerical increases”, the “Distance travelled in the open arm and % time in the open arms, in words” value ([4]; DCS 300 mg/kg in the presence of MDL100,907) was “significantly increased” and the “Reversal of the effects of MDL100,907 in the EPM, in words” value ([5]; DCS 300 mg/kg vs 30 mg/kg with MDL100,907 (Table 1 lines 6,7)) was “significantly reverses the effects of MDL100,907 at a dose of 300 mg/kg, but not 30 mg/kg”. For the same molecule, the “Effect in the EPM in the presence of aripiprazole, in words” value ([5]; DCS 300 mg/kg with aripiprazole 1 mg/kg) was “no significant effect”, the “Reversal of the effects of lurasidone in the EPM, in words” value ([5]; DCS 300 mg/kg with lurasidone 0.1-0.3 mg/kg) was “significantly reverses the effects of lurasidone” and the “Reversal of the effects of quetiapine in the EPM, in words” value ([5]; DCS 300 mg/kg with quetiapine 30 mg/kg) was “reversed at trend level”. The “Distance Traveled Open (DTO) Mean” value ([5]; 30 mg/kg ip alone) was 295.8, the “Percent open (PCT) Mean” value ([5]; 30 mg/kg ip alone) was 44.6% and the “Distance Traveled Open (DTO) Mean” value ([5]; 300 mg/kg ip alone) was 287.5. For the same molecule, the “Percent open (PCT) Mean” value ([5]; 300 mg/kg ip alone) was 45.4%, the “Mean distance travelled in the open arm of the EPM” value ([5]; Table 6, 300 mg/kg, DOI 2 mg/kg added) was 369.70 and the “Effect on distance travelled in open arm / % time in open arm of EPM, in words” value ([5]; agent alone vs control, doses of Tables 1 and 2) was “selectively increases % time in open arms at a dose of 300 mg/kg but not at a dose of 30 mg/kg”. For the same molecule, the “Mean plasma level over 30-120 min” value ([6]; 30 mg/kg IP, mice) was “below 25 microgram/mL”, the “Plasma levels over 30-120 min” value ([6]; doses of 100 mg/kg or above IP, mice) was “greater than 25 microgram/mL” and the “Maximum tolerated blood level” value ([6]; suggested from maximum tolerated dose) was “approximately 125 ug/mL”. For the same molecule, the “Hydrolysis of orally administered D-cycloserine during gastric emptying” value [7] was “up to 50%”.
